Patent US12559863B2, “Macrocyclic modulators of disease associated protein misfolding and aggregation” (RESQ BIOTECH, priority 2017, dated 2026)
Where a SMILES comes first, the peptide text is derived from it.

Key:
[1] = test system: primary mouse hippocampal neurons; assay: MTT cell viability in primary hippocampal neurons; assay type: cell-based; settings: for neurotoxicity of Aβ40: 1 μM Aβ40, 1:1 and 2:1 peptides:Aβ; for neurotoxicity of Aβ40 / neurotoxicity of Aβ42: 24 h, MTT; for neurotoxicity of Aβ42: 1 μM Aβ42, 1:1 and 2:1 peptides:Aβ; for growth-promoting effects or cytotoxicity of peptide on its own: peptide alone, no Aβ
Description: The media/agents for primary neuronal cell cultures were purchased from Thermo Fisher Scientific (USA). Hippocampal neuronal cultures were obtained from postnatal day 1 female pups of C57BL/6 mice. Briefly, after being dissected, the hippocampus was incubated with 0.25% trypsin for 15 min at 37° C. The hippocampi were then rinsed in 10 mL of Hibernate containing 10% (v/v) heat-inactivated fetal bovine serum (FBS). Cultures were maintained in Neurobasal-A medium containing 2% B-27 supplement, 0.5 mM Gluta-MAX and 1% penicillin/streptomycin at 37° C. and 5% CO2. Half of the medium was replaced twice a week. Neuronal hippocampal cells were plated at a density of approximately 2×10^4 per well in 96-well plates and 5×10^5 per well in 24-well plates for MTT and induced cell death assays, respectively. After seven days of incubation in culture well plates, the primary hippocampal neurons were used for the cell viability measurements.
Solutions of synthetic Aβ40 or Aβ42 (10 μM) in PBS, preincubated at 37° C. (3 d for Aβ40 solutions and 1 d for Aβ42 solutions) in the presence or absence of synthetic cyclic peptides (1:1 and 2:1 ratio of peptides:Aβ), were diluted with fresh medium and transferred into wells at a 1 μM final Aβ concentration. Cell viability was determined using the MTT assay. MTT (3-[4,5-dimethylthiazol-2-yl]-2,5-diphenyl tetrazolium bromide) was purchased from Applichem (Germany). After 24 h of exposure to Aβ solutions, 100 μL of a 0.5 mg/mL stock solution of MTT in Neurobasal-A was added to each well of primary hippocampal neurons followed by a 3 h incubation at 37° C., while 100 μL of a 1 mg/mL stock solution of MTT in DMEM complete medium was added to each well of U87MG cells followed by a 4 h incubation at 37° C. The medium was then removed and the cells were diluted in DMSO. The relative formazan concentration was measured by determination of the absorbance at 540 nm using a plate reader (Tecan, Austria). Results were expressed as the percentage of MTT reduction, assuming that the absorbance of control (untreated) cells was 100%, and represent the mean of three independent experiments with six replicate wells for each condition. Induced cell death was also qualitatively examined by phase-contrast microscopy (Carl Zeiss, Axiovert 25 CFL, Germany) using the above solutions. In each run, the effect of solutions of plain synthetic peptides and plain Aβ40 or Aβ42 was independently checked to serve as internal control.

[2] = test system: C. elegans strain CL2331 (Aβ3-42-GFP); assay: Confocal microscopy of Aβ3-42-GFP deposits in C. elegans CL2331; assay type: in vivo, Caenorhabditis elegans; settings: 10 μM AβC5-34 or 5 μM AβC5-116
Description: We followed standard procedures for C. elegans strains maintenance at 16° C. The following strains were used: CL2179: dvIs179 [myo-3p::GFP::3′UTR(long)+rol-6(su1006)] (available on the world wide web at: cgc.cbs.umn.edu/strain.php?id=26134); CL2331: dvIs37 [myo-3p::GFP::Aβ(3-42)+rol-6(su1006)] (available on the world wide web at: cgc.cbs.umn.edu/strain.php?id=26135); CL4176: smg-1(cc546) I; dvIs27 [myo-3::Aβ(1-42)-let 3′UTR(pAF29); pRF4 (rol-6(su1006)] (available on the world wide web at: cgc.cbs.umn.edu/strain.php?id=7663).
For Aβ3-42 deposit measurements, synchronized (at the L4 larval stage) CL2331 and CL2179 (control strain) animals exposed to solvent (0.26% DMSO), 10 μM AβC5-34 or 5 μM AβC5-116 and grown at 20° C. (to induce aggregation) until day 2 of adulthood were collected. Animals were mounted onto 2% agarose pads on glass slides, anesthetized with 10 mM levamisole and observed at RT using a Leica TCS SPE confocal laser scanning microscope (Leica Lasertechnik GmbH, Germany). The LAS AF software was used for image acquisition. At least twenty animals/condition in three independent experiments were processed. Images of whole worms and focused images in the posterior area of nematodes were acquired with 10×0.45 and 20×0.70 numerical aperture, respectively.

[3] = test system: C. elegans strain CL4176 (human Aβ42); assay: Dot blot analysis of total and oligomeric Aβ in C. elegans CL4176; assay type: in vivo, Caenorhabditis elegans; settings: for accumulation level of total Aβ, CL4176: antibody 6E10; for accumulation level of oligomeric Aβ, CL4176: antibody AB9234
Description: CL4176 animals were allowed to lay eggs for 3 h on NGM plates containing either synthetic peptides or 0.26% DMSO. Paralysis was induced upon temperature up-shift and the progeny were exposed to either pure peptides or 0.26% DMSO until 50% of the control population was paralyzed. The animals were then collected and boiled in non-reducing Laemmli buffer. For dot blot analysis, 1-5 μg of protein lysates were spotted onto 0.2 μm nitrocellulose membranes (Bio-Rad, USA) after soaking into TBS pre-heated at 80° C. Immunoblotting was performed using the anti-Aβ antibody 6E10 (recognizes total Aβ) and the anti-amyloid protein, oligomer-specific antibody AB9234 (Merck Millipore, Germany). Actin was used as a loading control. Blots were developed with chemiluminescence by using the Clarity™ Western ECL substrate (Bio-Rad, USA). Quantification of the ratio of each detected protein to actin using the anti-actin antibody sc-1615 (Santa Cruz, Germany), and normalization to control appears next to each representative blot.

Structure (SMILES) | neurotoxicity of Aβ40 [1] | neurotoxicity of Aβ42 [1] | growth-promoting effects or cytotoxicity of peptide on its own [1] | Aβ deposits, CL2331 [2] | accumulation level of total Aβ, CL4176 [3] | accumulation level of oligomeric Aβ, CL4176 [3]
C[C@@H]1NC(=O)[C@H](CO)NC(=O)[C@H]([C@@H](C)O)NC(=O)[C@@H]2CCCN2C(=O)[C@H](CO)NC1=O [AβC5-34, cyclo-SASPT] (cyclo(ASPTS)) | markedly inhibit the neurotoxicity | markedly inhibit the neurotoxicity | did not exhibit general growth-promoting effects or considerable cytotoxicity | significant reduction of Aβ deposits | significant reduction of both Aβ species | significant reduction of both Aβ species
C[C@@H]1NC(=O)[C@H]([C@@H](C)O)NC(=O)[C@H](CCCNC(=N)N)NC(=O)[C@H](CC(=O)O)NC(=O)[C@H](Cc2ccccc2)NC1=O [AβC5-116, cyclo-TAFDR] (cyclo(AFDRT)) | markedly inhibit the neurotoxicity | markedly inhibit the neurotoxicity | did not exhibit general growth-promoting effects or considerable cytotoxicity | significant reduction of Aβ deposits | significant reduction of both Aβ species | significant reduction of both Aβ species
